{"source": "the NIST ThermoML archive (doi:10.1016/j.jct.2007.02.009)", "key": {"[1]": {"test": "Molar enthalpy of transition or fusion", "conditions": "Crystal; Adiabatic calorimetry"}, "[2]": {"conditions": "Crystal; Adiabatic calorimetry"}}, "note": "Numbers after ± are expanded uncertainties.", "data": [{"smiles": "CN(C)C=O", "note": "[dimethylformamide]", "values": [{"measurement": "Molar enthalpy of transition or fusion", "setting": "[1]", "value": "2.14 ± 0.0311", "unit": "kcal/mol"}, {"measurement": "Triple point temperature", "setting": "[2]", "value": "212.86 ± 0.11", "unit": "K"}]}]}
